# Source: patent publication US4263295A, “Psychoactive 3-(1-2-diarylethyl)-1,4,5,6-tetrahydro-1,2,4-triazines and their method of use” (The Dow Chemical Company, priority 1977, dated 1981)
# Counter-ions that a name gives are not always drawn.
# Experiments:
# [1] = test system: depression; settings: U.S. Pat. No. 3,471,486; Journal of Medicinal Chemistry, 12, 257 (1969); cited from earlier work
# [2] = test system: anxiety; assay: Antianxiety activity, test not specified (background and summary statements); type: in vivo; settings: test not stated
# [3] = test system: serum corticosteroid levels; assay: Block of stress-induced rise of serum corticosteroid levels (antianxiety); type: in vivo; settings: stressed male rats, 20 mg/kg i.p.; for response vs control in vivo at 20 mg/kg: Rattus norvegicus, ip, saline control 100, values below 100% are indicative of activity, read-out: Serum Corticosteroid Levels μg %
# Procedure: See British Medical Journal, 1971 (2), p. 310-313. Corticosteroid levels were compared between stressed male rats pretreated with 20 mg/kg of the active compound given by intraperitoneal injection to corticosteroid levels of stressed male rats pretreated with saline. Blood (3 ml) was collected by means of cardiac puncture after methoxyflurane anesthesia. Following clotting, the blood was centrifuged to separate the serum for use in the corticosteroid analysis. The analysis was carried out by adding 5 ml of methylene chloride to 300 μl of the serum sample and vortexing the sample for 15-20 seconds. The samples were then centrifuged at 41 xg for about 5 minutes. The lipid layer was removed by aspiration and 3 ml of the methylene chloride fraction was transferred to a clean tube. To this sample, 3 ml of fluorescence reagent (25% ethanol and 75% concentrated sulfuric acid) was added and vortexed for 5 seconds. Fluorescence development was complete in 20 minutes and was read on a Perkin-Elmer® fluorometer Model 204 at an exciter wavelength of 470 mμ and an analyzer wavelength of 530 mμ. This assay measures free cortisol and corticosterone. The corticosteroid values were calculated as follows: [formula] […] Values below 100% are indicative of activity.
# [4] = test system: reserpine-induced ptosis; assay: Protection against reserpine-induced ptosis (antidepressant); type: in vivo; settings: Mus musculus; mice, 30 mg/kg i.p.; reserpine 2.5 mg/kg s.c. after 30 minutes; graded after 45 minutes; saline control 0
# Procedure: Groups of four mice were administered 30 mg/kg of the 3-(1,2-diarylethyl)-1,4,5,6-tetrahydro-1,2,4-triazine compounds by intraperitoneal injection via an aqueous carrier. A similar group of mice serving as controls were injected only with the carrier. After 30 minutes, both groups of mice were injected subcutaneously with 2.5 mg/kg of reserpine.
# Animals injected with the triazine compound were graded after 45 minutes on the following basis: no ptosis=0, partial ptosis=1, complete ptosis=2. Complete protection against reserpine-induced ptosis gives a value of 0 or 100%.
structure (smiles),measurement,setting,value
"c1ccc(CC(C2=NNCCN2)c2ccccc2)cc1 (stereo not drawn) [3-(1,2-diphenylethyl)-1,4,5,6-tetrahydro-1,2,4-triazine]",antidepressant activity of prior-art compound (in words),[1],antidepressant
same,antianxiety activity of prior-art compound (in words),[2],essentially inactive
"Cl.Fc1ccc(CC(C2=NNCCN2)c2ccccc2)cc1 (stereo not drawn) [Example 1, 3-(2-(4-fluorophenyl)-1-phenylethyl)-1,4,5,6-tetrahydro-1,2,4-triazine monohydrochloride]",response vs control in vivo at 20 mg/kg,[3],25%
same,"antianxiety activity (in words, from Table II)",[3],especially active as antianxiety agents
same,inhibition at 30 mg/kg,[4],63%
"Cl.Clc1ccc(CC(C2=NNCCN2)c2ccccc2)cc1 (stereo not drawn) [Example 2, 3-(2-(4-Chlorophenyl)-1-phenylethyl)-1,4,5,6-tetrahydro-1,2,4-triazine monohydrochloride]",response vs control in vivo at 20 mg/kg,[3],13%
same,"antianxiety activity (in words, from Table II)",[3],especially active as antianxiety agents
same,inhibition at 30 mg/kg,[4],88%
"COc1ccc(C(Cc2ccc(F)cc2)C2=NNCCN2)cc1 (stereo not drawn) [Example 3, 3-(2-(4-Fluorophenyl)-1-(4-methoxyphenyl)ethyl)-1,4,5,6-tetrahydro-1,2,4-triazine monohydrochloride]",response vs control in vivo at 20 mg/kg,[3],82%
same,inhibition at 30 mg/kg,[4],38%
"Cc1ccc(C(Cc2ccccc2)C2=NNCCN2)cc1 (stereo not drawn) [Example 4, 3-(1-(4-Methylphenyl)-2-phenylethyl)-1,4,5,6-tetrahydro-1,2,4-triazine monohydrochloride]",response vs control in vivo at 20 mg/kg,[3],67%
same,inhibition at 30 mg/kg,[4],38%
Cc1cccc(CC(C2=NNCCN2)c2ccccc2)c1 (stereo not drawn) [Example 5],response vs control in vivo at 20 mg/kg,[3],32%
same,inhibition at 30 mg/kg,[4],25%
Cc1ccc(CC(C2=NNCCN2)c2ccccc2)cc1 (stereo not drawn) [Example 6],response vs control in vivo at 20 mg/kg,[3],62%
same,inhibition at 30 mg/kg,[4],50%
Clc1cccc(CC(C2=NNCCN2)c2ccccc2)c1 (stereo not drawn) [Example 7],response vs control in vivo at 20 mg/kg,[3],75%
same,inhibition at 30 mg/kg,[4],88%
Cc1cccc(C(Cc2ccccc2)C2=NNCCN2)c1 (stereo not drawn) [Example 8],response vs control in vivo at 20 mg/kg,[3],52%
same,inhibition at 30 mg/kg,[4],38%
c1ccc(CC(C2=NNCCN2)c2ccc3c(c2)OCO3)cc1 (stereo not drawn) [Example 9],response vs control in vivo at 20 mg/kg,[3],33%
same,"antianxiety activity (in words, from Table II)",[3],especially active as antianxiety agents
same,inhibition at 30 mg/kg,[4],50%
"c1ccc(CC(C2=NNCCN2)c2ccc3ccccc3c2)cc1 (stereo not drawn) [Example 10, 3-(1-(2-Naphthalenyl)-2-phenylethyl)-1,4,5,6-tetrahydro-1,2,4-triazine monohydrochloride]",response vs control in vivo at 20 mg/kg,[3],54%
same,inhibition at 30 mg/kg,[4],50%
c1ccc(CC(C2=NNCCN2)c2cccc3ccccc23)cc1 (stereo not drawn) [Example 11],response vs control in vivo at 20 mg/kg,[3],77%
same,inhibition at 30 mg/kg,[4],25%
Cc1ccc(CC(C2=NNCCN2)c2ccccc2)cc1C (stereo not drawn) [Example 12],response vs control in vivo at 20 mg/kg,[3],33%
same,"antianxiety activity (in words, from Table II)",[3],especially active as antianxiety agents
same,inhibition at 30 mg/kg,[4],25%
"Clc1cccc(Cl)c1CC(C1=NNCCN1)c1ccccc1 (stereo not drawn) [Example 13, 3-(2-(2,6-Dichlorophenyl)-1-phenylethyl)-1,4,5,6-tetrahydro-1,2,4-triazine monohydrochloride]",response vs control in vivo at 20 mg/kg,[3],39%
same,inhibition at 30 mg/kg,[4],88%
Clc1ccc(CC(C2=NNCCN2)c2ccccc2)cc1Cl (stereo not drawn) [Example 14],response vs control in vivo at 20 mg/kg,[3],79%
same,inhibition at 30 mg/kg,[4],63%
c1ccc(C(Cc2cccc3ccccc23)C2=NNCCN2)cc1 (stereo not drawn) [Example 15],response vs control in vivo at 20 mg/kg,[3],72%
same,inhibition at 30 mg/kg,[4],13%
c1ccc(C(Cc2ccc3ccccc3c2)C2=NNCCN2)cc1 (stereo not drawn) [Example 16],response vs control in vivo at 20 mg/kg,[3],39%
same,"antianxiety activity (in words, from Table II)",[3],especially active as antianxiety agents
same,inhibition at 30 mg/kg,[4],42%
Fc1cccc(CC(C2=NNCCN2)c2ccccc2)c1 (stereo not drawn) [Example 17],response vs control in vivo at 20 mg/kg,[3],62%
same,inhibition at 30 mg/kg,[4],25%
"CN1CCNC(C(Cc2ccc(Cl)cc2)c2ccccc2)=N1 (stereo not drawn) [Example 18, 3-(2-(4-Chlorophenyl)-1-phenylethyl)-1,4,5,6-tetrahydro-1-methyl-1,2,4-triazine monohydrochloride]",response vs control in vivo at 20 mg/kg,[3],77%
same,inhibition at 30 mg/kg,[4],50%
"CC(=O)N1CCN(C)N=C1C(Cc1ccccc1)c1ccccc1 (stereo not drawn) [Example 19, 4-acetyl-3-(1,2-diphenylethyl)-1,4,5,6-tetrahydro-1-methyl-1,2,4-triazine monohydrochloride]",response vs control in vivo at 20 mg/kg,[3],77%
same,inhibition at 30 mg/kg,[4],13%
